Results published in US12622915B2, “Methods of treating PDE IV-mediated diseases or conditions” (Vanda Pharmaceuticals Inc., priority 2020, dated 2026).

Legend:
Conditions in all cases: N=2, Example 3
[1] = molecular target: T1, Phosphodiesterase PDE11A4 (Homo sapiens, UniProt Q9HCR9); assay: Phosphodiesterase PDE11A4 enzyme assay; format: biochemical
T1 construct: host or cells: insect Sf9 cells
Excerpt: (§1) Reference standards are run as an integral part of each assay to ensure the validity of the results obtained. Reference Compounds: • Phosphodiesterase PDE10A2 Papaverine • Phosphodiesterase PDE11A4 Dipyridamole • Phosphodiesterase PDE1A MMPX • Phosphodiesterase PDE2A EHNA • Phosphodiesterase PDE3A Cilostamide • Phosphodiesterase PDE4A1A Rolipram • Phosphodiesterase PDE4B1 Rolipram • Phosphodiesterase PDE5A Zaprinast • Phosphodiesterase PDE6 Zaprinast • Phosphodiesterase PDE7A IBMX • Phosphodiesterase PDE7B IBMX • Phosphodiesterase PDE8A1 Dipyridamole • Phosphodiesterase PDE9A2 Zaprinast
(§2) Phosphodiesterase PDE4A1A; Phosphodiesterase PDE4B1; Phosphodiesterase PDE10A2; Phosphodiesterase PDE11A4; Phosphodiesterase PDE2A; Phosphodiesterase PDE3A; Phosphodiesterase PDE7A; Phosphodiesterase PDE7B; and Phosphodiesterase PDE8A1: • Source: Human recombinant insect Sf9 cells • Substrate: 0.10 μM FAM-cAMP • Vehicle: 1.00% DMSO • Significance Crit.: ≥50% of max stimulation or inhibition • Incubation Buffer: 10 mM Tris-HCl, pH 7.2, 10 mM MgCl2, 0.05% NaN3, 0.1% phosphate-free BSA • Quantitation Method: Quantitation of Fluorescein-AMP-IMAP • Pre-Incub. Time/Temp: 15 minutes @25° C. • Incubation Time/Temp: 30 minutes @25° C.
(§3) IC50 values are determined by a non-linear, least squares regression analysis using MathIQ™ (ID Business Solutions Ltd., UK). […]

Phosphodiesterase PDE6 = molecular target: T2, Phosphodiesterase PDE6 (Bos taurus, UniProt P11541+P23439); assay: Phosphodiesterase PDE6 enzyme assay; format: biochemical, bovine
T2 construct: Source: Bovine retinal rod outer segments; from tissue; host or cells: bovine retinal rod outer segments
T2 sequence (P11541 2-856 limits assumed): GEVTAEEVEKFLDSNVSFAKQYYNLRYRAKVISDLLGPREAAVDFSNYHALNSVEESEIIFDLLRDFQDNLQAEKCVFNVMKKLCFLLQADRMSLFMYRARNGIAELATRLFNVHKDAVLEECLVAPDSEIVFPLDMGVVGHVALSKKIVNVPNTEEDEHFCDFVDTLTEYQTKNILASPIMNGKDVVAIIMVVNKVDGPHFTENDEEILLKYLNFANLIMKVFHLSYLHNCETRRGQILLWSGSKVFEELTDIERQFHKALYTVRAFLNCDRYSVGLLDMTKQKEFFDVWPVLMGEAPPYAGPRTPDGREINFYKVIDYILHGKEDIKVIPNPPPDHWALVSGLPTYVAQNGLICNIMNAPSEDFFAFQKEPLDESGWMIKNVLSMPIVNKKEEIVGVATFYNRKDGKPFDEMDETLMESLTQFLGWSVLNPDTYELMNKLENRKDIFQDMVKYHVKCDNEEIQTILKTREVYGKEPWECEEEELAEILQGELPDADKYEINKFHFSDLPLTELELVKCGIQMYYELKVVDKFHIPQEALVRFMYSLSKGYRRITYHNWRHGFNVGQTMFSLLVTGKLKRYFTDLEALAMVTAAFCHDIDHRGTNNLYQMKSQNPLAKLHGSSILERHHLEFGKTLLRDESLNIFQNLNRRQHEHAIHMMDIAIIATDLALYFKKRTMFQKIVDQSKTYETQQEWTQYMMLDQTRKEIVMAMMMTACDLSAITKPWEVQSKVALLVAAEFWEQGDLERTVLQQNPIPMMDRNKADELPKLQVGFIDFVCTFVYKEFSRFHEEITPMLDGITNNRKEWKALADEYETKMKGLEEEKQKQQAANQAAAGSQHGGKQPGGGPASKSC
T2 sequence (P23439 2-850 limits assumed): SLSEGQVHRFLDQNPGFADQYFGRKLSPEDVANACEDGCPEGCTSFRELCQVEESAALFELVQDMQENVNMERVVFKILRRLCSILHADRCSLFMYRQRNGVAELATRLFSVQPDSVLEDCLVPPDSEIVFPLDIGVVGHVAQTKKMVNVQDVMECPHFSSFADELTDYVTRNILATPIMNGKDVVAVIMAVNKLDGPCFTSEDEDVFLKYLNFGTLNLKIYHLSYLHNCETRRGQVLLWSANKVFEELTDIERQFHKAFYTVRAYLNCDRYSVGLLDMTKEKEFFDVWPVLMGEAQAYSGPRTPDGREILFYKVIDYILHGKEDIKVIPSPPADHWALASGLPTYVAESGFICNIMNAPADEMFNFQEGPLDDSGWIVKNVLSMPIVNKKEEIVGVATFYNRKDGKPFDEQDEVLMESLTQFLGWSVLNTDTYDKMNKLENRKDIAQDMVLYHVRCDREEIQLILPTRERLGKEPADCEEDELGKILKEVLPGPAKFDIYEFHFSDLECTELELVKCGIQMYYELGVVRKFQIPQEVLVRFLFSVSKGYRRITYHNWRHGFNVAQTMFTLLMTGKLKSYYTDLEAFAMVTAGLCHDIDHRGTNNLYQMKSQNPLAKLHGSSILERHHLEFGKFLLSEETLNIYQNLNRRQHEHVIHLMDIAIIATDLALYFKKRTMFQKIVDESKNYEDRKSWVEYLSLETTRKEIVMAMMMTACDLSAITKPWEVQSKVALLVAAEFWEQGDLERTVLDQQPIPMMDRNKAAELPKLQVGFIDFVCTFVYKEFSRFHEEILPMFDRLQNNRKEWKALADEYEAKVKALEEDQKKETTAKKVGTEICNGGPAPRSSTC
Excerpt: as §1
Phosphodiesterase PDE6: • Source: Bovine retinal rod outer segments • Substrate: 100 μM [^3H]cGMP+cGMP • Vehicle: 1.00% DMSO • Significance Crit.: ≥50% of max stimulation or inhibition • Incubation Buffer: 50 mM Tris-HCl, pH 7.5, 5 mM MgCl2 • Quantitation Method: Quantitation of [^3H]Guanosine • Pre-Incub. […]
IC50 values are determined by a non-linear, least squares regression analysis using MathIQ™ (ID Business Solutions Ltd., UK). Where inhibition constants (Ki) are presented, the Ki values are calculated using the equation of Cheng and Prusoff (Cheng, Y., Prusoff, W. H., Biochem. Pharmacol. 22:3099-3108, 1973) using the observed IC50 of the tested compound, the concentration of radioligand employed in the assay, and the historical values for the KD of the ligand. […]

Phosphodiesterase PDE7A = molecular target: T3, Phosphodiesterase PDE7A (Homo sapiens, UniProt Q13946); assay: Phosphodiesterase PDE7A enzyme assay; format: biochemical
T3 construct: host or cells: insect Sf9 cells
Excerpt: as §1, §2, §3

T1 sequence (Q9HCR9 whole entry): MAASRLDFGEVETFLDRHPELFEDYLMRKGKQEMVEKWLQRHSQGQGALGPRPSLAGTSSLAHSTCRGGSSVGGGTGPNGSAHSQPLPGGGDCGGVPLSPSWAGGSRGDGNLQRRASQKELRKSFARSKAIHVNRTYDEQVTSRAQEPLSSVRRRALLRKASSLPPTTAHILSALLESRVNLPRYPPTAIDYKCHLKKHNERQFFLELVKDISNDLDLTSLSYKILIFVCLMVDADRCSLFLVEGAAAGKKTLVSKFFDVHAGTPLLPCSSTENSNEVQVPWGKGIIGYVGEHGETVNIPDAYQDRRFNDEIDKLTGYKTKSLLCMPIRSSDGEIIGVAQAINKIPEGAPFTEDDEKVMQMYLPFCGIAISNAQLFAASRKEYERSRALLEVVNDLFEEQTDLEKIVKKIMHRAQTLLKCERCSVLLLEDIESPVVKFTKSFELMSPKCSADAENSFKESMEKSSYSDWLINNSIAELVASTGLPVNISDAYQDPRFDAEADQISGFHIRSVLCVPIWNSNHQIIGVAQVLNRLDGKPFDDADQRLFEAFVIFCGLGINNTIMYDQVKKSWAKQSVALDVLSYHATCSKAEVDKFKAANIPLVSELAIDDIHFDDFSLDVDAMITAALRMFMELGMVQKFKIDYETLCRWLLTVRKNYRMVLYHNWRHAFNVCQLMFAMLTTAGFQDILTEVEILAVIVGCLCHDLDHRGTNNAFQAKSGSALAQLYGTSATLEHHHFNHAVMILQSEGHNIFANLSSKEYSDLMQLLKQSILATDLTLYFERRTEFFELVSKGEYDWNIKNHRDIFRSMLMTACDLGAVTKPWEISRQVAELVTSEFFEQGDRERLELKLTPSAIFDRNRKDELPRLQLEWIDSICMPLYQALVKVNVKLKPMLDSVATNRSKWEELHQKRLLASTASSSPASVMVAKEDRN
T3 sequence (Q13946 whole entry): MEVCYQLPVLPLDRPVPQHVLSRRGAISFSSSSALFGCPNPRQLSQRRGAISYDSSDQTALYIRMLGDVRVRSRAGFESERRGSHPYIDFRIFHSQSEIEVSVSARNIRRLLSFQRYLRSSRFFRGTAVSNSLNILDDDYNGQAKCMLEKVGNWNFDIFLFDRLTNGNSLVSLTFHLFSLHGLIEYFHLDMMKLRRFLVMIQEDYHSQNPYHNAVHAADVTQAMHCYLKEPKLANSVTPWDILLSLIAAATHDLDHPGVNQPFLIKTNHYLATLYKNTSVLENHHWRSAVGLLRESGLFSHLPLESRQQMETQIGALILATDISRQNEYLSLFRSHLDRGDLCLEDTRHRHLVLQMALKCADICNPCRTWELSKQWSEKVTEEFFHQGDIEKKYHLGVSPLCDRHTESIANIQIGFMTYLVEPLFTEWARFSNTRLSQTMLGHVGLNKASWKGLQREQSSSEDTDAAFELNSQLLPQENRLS

- inhibition at 10 µM [1]: 14%
- inhibition at 10 µM (Phosphodiesterase PDE6): 8%
- inhibition at 10 µM (Phosphodiesterase PDE7A): 7%
SMILES: CNc1nc(Nc2ccccc2)nc(OCC(F)(F)C(F)F)n1 [compound of Formula (I), N^2-methyl-N^4-phenyl-6-(2,2,3,3-tetrafluoropropoxy)-1,3,5-triazine-2,4-diamine]
